One data set deals with C57B6/J mice. Kind of data set: In vivo efficacy, glucose tolerance test. On the set-up: species or system mouse. To be noted: 2 mg/kg tail vein injection, compared to control (vehicle). On the procedure: Three-month-old male C57B6/J mice of body weight ranging from 20 to 25 g were housed in plastic polycarbonate cages. The animals were maintained at 25° C. with a 12-hour dark, 12-hour light schedule with food and water available ad libitum.
After two weeks of adaptation, the animals were randomly divided into two treatment groups (vehicle and Compound 8 in vehicle) with 5 mice per group. Mice were fasted for 16 hours (overnight) and basal blood glucose level was measured by tail vein nick using the AlphaTRAK 2 glucometer. Animals were given Compound 8 (2 mg/kg body weight) in vehicle or vehicle alone (7.5% NMP, 7.5% Solutol HS-15, 85% normal saline) by tail vein injection. Glucose tolerance tests (GTT) were performed 10 minutes after injection. Animals were given glucose at a dose of 1 g/kg body weight by intraperitoneal injection. Blood glucose was measured using the glucometer immediately before glucose injection, and at 15, 30, 60, and 120 minutes after injection (FIGS. 19A and 19C). At the 0, 15, and 30 minute time points, blood samples for insulin measurements were collected into EDTA-coated tubes and centrifuged at 9000 rpm to separate plasma, which was then stored at −80° C. until analysis. Insulin levels in plasma were analyzed using the ultra-sensitive mouse insulin ELISA kit (Crystal Chem) (FIGS. 19B and 19D). […]

The nature of another data set: Microsome t1/2, human. It counts as in vitro ADME. To be noted: Human microsomes. Here is the method: (§1) The pharmacokinetic activity profile of Compound 8 was assessed by various standard in vitro measurements. Measurements were performed on human, mouse (CD-1) and rat (SD) microsomes to determine the t1/2, the plasma protein binding (“PPB”) and the plasma stability (“PS”).

A further data set relates to cAMP. Kind of data set: cAMP HTRF assay (Cisbio). It counts as cell-based. To be noted: HTRF competition assay; increase in cAMP seen as decrease in signal. The source says: FIG. 9 depicts the quantification of cAMP activity in cells treated with the indicated compound in a HTRF assay from Cisbio.
Further investigation into Compound 8 included measuring levels of the secondary messengers cAMP (FIG. 9) and IP-1 (not shown) in treated cells, as compounds that increase these secondary messengers are known to augment insulin secretion, though often in ways that are not beta-cell specific.
CellTiter-Glo (Promega) and the cAMP Dynamic-2 HTRF assay (Cisbio) were used according to the manufacturers' instructions. Luciferase secretion and CellTiter-Glo experiments were performed using a 1 hr incubation with compound, whereas the cAMP assay was performed using a 30 min incubation. Secretion experiments were run in KRB buffer; all other experiments were run in standard INS-1E medium.
(TR-FRET usually uses a lanthanide donor and a delayed reading to cut background.)

A further data set concerns INS-1E cells. The data set is described as follows: Luciferase Insulin Secretion Assay (proinsulin-Gaussia luciferase reporter). In kind it is cell-based, rat. As to conditions: INS-1E cells; 2.8 mM vs 16.7 mM glucose. The source says:
A high-throughput luminescent insulin secretion assay was developed and performed to identify compounds that amplified insulin secretion only in the presence of a permissive glucose environment (FIG. 3). The assay used in compound screening is described in International Patent Publication No. WO2013070796A3, PCT/US2012/063982, and in Burns et al., High-Throughput Luminescent Reporter of Insulin Secretion for Discovering Regulators of Pancreatic Beta-Cell Function. Cell Metab. 2015 Jan. 6; 21(1):126-37.
The assay is a luminescent insulin secretion assay created by inserting Gaussia luciferase within the C-peptide portion of the insulin prohormone. Gaussia luciferase was chosen because of its small size and bright luciferase signal. To ensure full activity of the luciferase, a version was used that was codon-optimized for expression in mammalian cells. The enzyme was flanked with additional cleavage sites for prohormone convertase 2 (PC2), such that no extra amino acids should be present on the ends of the enzyme after processing within the vesicles (FIG. 4). Rat (INS-1E; Merglen et al., 2004) beta-cell lines stably expressing the reporter construct were generated. Assays using this cell type are referred to herein as Luciferase Insulin Secretion Assay.
A search for glucose-dependent insulin secretagogues was conducting by screening 384,216 compounds at a single concentration (10 μM) in duplicate using the Luciferase Insulin Secretion Assay, to identify those that increase insulin secretion only in the presence of high glucose (11.1 mM) (FIG. 6). These assays were performed in 1536 well format. A Z′ factor of 0.35 was obtained with respect the positive control (300 μM IBMX). The cutoff value selected was 45% activation, which was 3-4 standard deviations above background (solid uppermost line; FIG. 6).
For standard secretion assays, INS-1E cells were plated in 96-well format, preincubated for 1 hr in Krebs Ringer Buffer (KRB) with 2.8 mM glucose, and then stimulated for 1 hr in fresh KRB containing varying amounts of glucose and compounds. Insulin or C-peptide concentration was determined using an ELISA (Mercodia), following the manufacturer's protocol. Luciferase activity was determined from the same samples by adding the coelenterazine substrate to the supernatant to a final concentration of 10 μM and reading on a standard plate reader (BioTek).
INS-1E cells were expanded to 80% confluence in their growth medium, washed once in PBS, and preincubated for 1 hr at 37° C. in KRB with 2.8 mM glucose. Cells were then dissociated, spun at 300×g for 2 min, resuspended in fresh KRB without glucose, and filtered through 40 μm mesh (Becton Dickinson). Next, the cells were counted and diluted in KRB to 1×10^6 cells per ml, and glucose was added as required for each experiment. Cells were then seeded in 384-well format, 3×10^4 cells in 30 μl per well, using a Multidrop Combi device (Thermo Scientific). Compounds were pinned into each well using a Vario robot (CyBio) to a final concentration of 30 μM, and the plates were then incubated for 2 hr at 37° C. For assays involving a transfer step, the plates were then centrifuged at 300×g for 2 min, and 20 μl of supernatant was transferred to a new 384-well plate. Coelenterazine substrate was then added to a final concentration of 10 μM, and luciferase activity was determined using a standard plate reader (BioTek).
(In general: In a reporter assay the amount or activity of a reporter protein is the signal.)

A further data set can be described thus: Microsome t1/2, mouse. To be noted: Mouse (CD-1) microsomes. It counts as in vitro ADME. Here is the method: as §1

We go through one compound from US11555031B2, “Compounds and methods for regulating insulin secretion” (The Broad Institute, Inc., priority 2017, dated 2023).

One may read the half-life as the time needed for the level to fall by half in the phase considered.

SMILES strings stand for the structures. “Also recorded” adds a separate entry of the source.

Consider `Cc1cccc(NC(=O)c2ccc(OCc3c(C)noc3C)cc2)c1C` [Compound 8], for which the “glucose concentration area under the curve (AUC)” value in the data set on C57B6/J mice (GTT 1 g/kg glucose i.p.) is on record as “decreased”. Further, the insulinogenic index result in the data set with C57B6/J mice (GTT) was “increase”. Besides, the half-life came to 19.3 h in “Microsome t1/2, human” and 4.6 h in “Microsome t1/2, mouse”. The cAMP level entry in the data set on cAMP was “did not increase levels”. In addition, the “glucose-dependent (glucose-stimulated) insulin secretion, luciferase reporter” value in the data set on INS-1E cells is given as “significant increase in glucose-dependent insulin secretion; also recorded: dose-dependent effect; also recorded: more effective than even the positive control, forskolin”.
